Data taken from PMC8920097, “Prediction of hERG inhibition of drug discovery compounds using biomimetic HPLC measurements” (ADMET & DMPK, 2021).
Like-named read-outs stand apart in the source and are kept apart here.

Legend:
[1] = target: human serum albumin (HSA) (Homo sapiens, UniProt P02768); test: Protein binding on Chiralpak HSA HPLC column
Procedure: (§1) The measurement of the biomimetic properties of the available drugs was conducted in our laboratories. Generic gradient HPLC methods were used to determine the chromatographic hydrophobicity Index (CHI) using mobile phases at three different pH values. The protein binding of the compounds was measured using immobilised human serum albumin (HSA), and alpha-1-acid-glycoprotein (AGP) stationary phases. The phospholipid-binding was measured using the immobilised artificial membrane (IAM) stationary phase. The aim was to establish relationships between the cardiotoxicity potential and the biomimetic binding properties of the drugs and to evaluate their predictive performance.

[2] = test system: alpha-1-acid-glycoprotein (AGP); test: Protein binding on Chiralpak AGP HPLC column
Procedure: as §1

hERG channel = details: cited from earlier work
[3] = CHI lipophilicity by gradient reversed-phase HPLC (Gemini NX-C-18); details: for chromatographic logD: Gemini NX-C-18 reversed-phase HPLC column, pH 7.4; for chromatographic logP: reversed-phase HPLC, Gemini NX-C-18 column (50 x 3 mm, 5 µm)
Procedure: The Chromatographic Hydrophobicity Index (CHI) was measured using the compounds’ calibrated gradient retention times obtained from an Agilent 1100 HPLC fitted with a Gemini NX-C-18 column (Phenomenex Ltd Macclesfield, UK) with dimensions of 50 x 3 mm and 5 μm particle size. […] The mobile phase B was 100 % acetonitrile. […] An acetonitrile linear gradient was used from 0 to 100 %. […] The retention time values for a standard set of compounds listed in Table 1 were used to convert the drug retention times to CHI values.

[4] = Phospholipid binding at pH 7.4 on IAM PC.DD2 HPLC column; type: physicochemical; parameters: key to CHI IAM: approximates acetonitrile concentration (%) in mobile phase at elution; details: for log k IAM: pH 7.4, derived from CHI IAM by equation 1; for CHI IAM: pH 7.4
Procedure: The phospholipid-binding was measured using an IAM PC.DD2 column with dimensions of 100 x 4.6 mm (Regis Technologies Inc., Morton Grove, IL, USA). The gradient retention times were measured using a 50 mM ammonium acetate mobile phase with the pH adjusted to 7.4. The mobile phase flow rate was 1.5 mL/min. […] The cycle time was 6 min, plus an additional 1 min equilibration time was applied while the injector prepared for the next injection. The gradient retention times were calibrated with the acetophenone homologues for which the CHI IAM values have been established using isocratic measurements. […] The CHI Index on the IAM column (CHI IAM) approximates the acetonitrile concentration in the mobile phase when the compound elutes. […] The CHI IAM values have been converted to log k IAM values derived from the CHI IAM values using equation 1. It represents the equivalent value derived from several isocratic measurements with extrapolated log retention factors to 100 % aqueous mobile phase. The log k IAM values can be converted to log K (IAM) values and show linear relationships with the octanol/water partition coefficients.

[5] = Charge character of the drugs at pH 7.4; type: physicochemical
[6] = literature values, mean where several reported, molar

Chain of human serum albumin (HSA) (P02768 25-609): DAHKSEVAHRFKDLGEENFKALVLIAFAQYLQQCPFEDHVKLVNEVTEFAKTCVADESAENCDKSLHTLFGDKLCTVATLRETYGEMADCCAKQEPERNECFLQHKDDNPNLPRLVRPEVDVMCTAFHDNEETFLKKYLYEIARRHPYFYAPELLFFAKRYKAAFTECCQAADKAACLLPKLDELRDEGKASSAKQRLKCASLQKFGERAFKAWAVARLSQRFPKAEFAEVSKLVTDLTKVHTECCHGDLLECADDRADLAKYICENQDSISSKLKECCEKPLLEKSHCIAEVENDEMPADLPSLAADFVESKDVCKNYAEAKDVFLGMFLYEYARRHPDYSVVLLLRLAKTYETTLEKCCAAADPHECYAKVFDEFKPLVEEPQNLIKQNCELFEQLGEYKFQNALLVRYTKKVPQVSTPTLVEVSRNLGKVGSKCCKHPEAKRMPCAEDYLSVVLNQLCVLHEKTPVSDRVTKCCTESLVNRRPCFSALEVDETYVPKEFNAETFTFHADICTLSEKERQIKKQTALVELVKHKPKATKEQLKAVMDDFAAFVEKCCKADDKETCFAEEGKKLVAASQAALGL

SMILES	log k HSA ([1]; pH 7.4, Chiralpak HSA)	log k AGP ([2]; pH 7.4, Chiralpak AGP)	hERG pIC50 (hERG channel)	chromatographic logD [3]	chromatographic logP [3]	log k IAM [4]	Charge [5]	hERG pIC50 (hERG channel; [6])	CHI IAM [4]	log k HSA ([1]; human, pH 7.4)	log k AGP ([2]; pH 7.4)
COc1cc2nc(N(C)CCCNC(=O)C3CCCO3)nc(N)c2cc1OC (centres unmarked) [Alfuzosin]	0.08	0.32	4.28								
COc1ccc(CCN2CCC(Nc3nc4ccccc4n3Cc3ccc(F)cc3)CC2)cc1 [Astemizole]	1.17	1.12	6.69	2.68	3.52	2.77	Basic				
CC(C)COCC(CN(Cc1ccccc1)c1ccccc1)N1CCCC1 (centres unmarked) [Bepridil]	1.27	1.14		4.4	6.62	3.08	Basic	6.42			
CN(C)CCC(c1ccc(Br)cc1)c1ccccn1 (centres unmarked) [Brompheniramine]	0.68	0.68		1.74	4.27	2.8	Basic	5.61			
CCCCN1CCCCC1C(=O)Nc1c(C)cccc1C (centres unmarked) [Bupivacaine]	-0.10	1.35		3.06	3.97	2.34	Weak Base	5.51	41.66		
COc1cc(N)c(Cl)cc1C(=O)NC1CCN(CCCOc2ccc(F)cc2)CC1OC (centres unmarked) [Cisapride]	1.11	0.84	6.88	2.65	3.17	2.35	Basic				
CC[C@H]1OC(=O)[C@H](C)[C@@H](O[C@H]2C[C@@](C)(OC)[C@@H](O)[C@H](C)O2)[C@H](C)[C@@H](O[C@@H]2O[C@H](C)C[C@H](N(C)C)[C@H]2O)[C@](C)(OC)C[C@@H](C)C(=O)[C@H](C)[C@@H](O)[C@]1(C)O [Clarithromycin]	-0.24	0.20	4.32	1.9	4.55	2.70	Basic		49.68		
CN1CCN(C2=Nc3cc(Cl)ccc3Nc3ccccc32)CC1 [Clozapine]	1.04	0.99		2.6	3.05	2.83	Weak Base		52.42		
CN(CCOc1ccc(NS(C)(=O)=O)cc1)CCc1ccc(NS(C)(=O)=O)cc1 [Dofetilide]	-0.05	0.59	5.72	1.18	1.12		Weak Base				
O=c1[nH]c2ccccc2n1CCCN1CCC(n2c(=O)[nH]c3cc(Cl)ccc32)CC1 [Domperidone]	1.02			1.37	2.13	2.42	Weak Base		43.47		
COc1cc2nc(N3CCN(C(=O)C4COc5ccccc5O4)CC3)nc(N)c2cc1OC (centres unmarked) [Doxazosin]	1.04	0.72		2.09	2.24	2.16	Weak Base	6.03			
O=C(CCCN1CC=C(n2c(=O)[nH]c3ccccc32)CC1)c1ccc(F)cc1 [Droperidol]	0.98	1.69		2.26	2.68		Weak Base				
O=C(NCC1CCCCN1)c1cc(OCC(F)(F)F)ccc1OCC(F)(F)F (centres unmarked) [Flecainide]	-0.05	0.16		1.68	3.01	2.33	Basic	5.25			
CN1C2CCCC1CC(NC(=O)c1nn(C)c3ccccc13)C2 (centres unmarked) [Granisetron]	0.34	0.52		0.79	2.5	2.53	Basic				
CCCCC1=NC2(CCCC2)C(=O)N1Cc1ccc(-c2ccccc2-c2nnn[nH]2)cc1 [Irbesartan]	1.30	1.10		1.39	2	1.62	Zwitterionic	4.71	26.14		
COC(=O)C1=C(C)NC(C)=C(C(=O)OC(C)C)C1c1cccc2nonc12 (centres unmarked) [Isradipine]	1.19	1.32		3.25	3.29	2.21	Neutral	5.71			
Nc1nnc(-c2cccc(Cl)c2Cl)c(N)n1 [Lamotrigine]	0.16	-0.33	3.55	0.86	0.81	1.49	Weak Base		23.25		
CCCCN1CCCC[C@H]1C(=O)Nc1c(C)cccc1C [Levobupivacaine]	0.13	1.25		3.25	4.2	2.34	Weak Base	5.48	41.83		
OC(c1cc(C(F)(F)F)nc2c(C(F)(F)F)cccc12)C1CCCCN1 (centres unmarked) [Mefloquine]	1.38	1.11	5.45	2.18	4.22		Basic				
CCN(CC)CCNC(=O)c1cc(Cl)c(N)cc1OC [Metoclopramide]							Basic	5.27		0.15	0.23
COc1c(N2C[C@@H]3CCCN[C@@H]3C2)c(F)cc2c(=O)c(C(=O)O)cn(C3CC3)c12 [Moxifloxacin]							Zwitterionic	3.83		0.54	
OCCN1CCN(CCCN2c3ccccc3Sc3ccc(Cl)cc32)CC1 [Perphenazine]		1.13		2.92	3.5	2.61	Weak Base	5.88			
CNCCCC1c2ccccc2C=Cc2ccccc21 [Protriptyline]		1.03		1.72	4.7	2.79	Weak Base	5.30			
CC(C)(C)NC(=O)[C@@H]1C[C@@H]2CCCC[C@@H]2CN1C[C@@H](O)[C@H](Cc1ccccc1)NC(=O)[C@H](CC(N)=O)NC(=O)c1ccc2ccccc2n1 [Saquinavir]		1.59		3.31	3.39	2.36	Weak Base	5.82	42.17		
CC(C)NCC(O)c1ccc(NS(C)(=O)=O)cc1 (centres unmarked) [Sotalol]		-1.41		-0.39	-0.35	1.43	Basic	3.57			
CC(=O)S[C@@H]1CC2=CC(=O)CC[C@]2(C)[C@H]2CC[C@@]3(C)[C@@H](CC[C@@]34CCC(=O)O4)[C@H]12 [Spironolactone]	0.78	0.50		2.76	2.97	2.12	Neutral		36.93		
O=c1n(CCCN2CCN(c3cccc(Cl)c3)CC2)nc2ccccn12 [Trazodone]		0.46		2.51	2.59	1.93	Weak Base	5.30			
CN1CCN(CCCN2c3ccccc3Sc3ccc(C(F)(F)F)cc32)CC1 [Trifluoperazine]		1.19		3.8	5.14	3.55	Basic	5.72			
